Results: patent US11485728B2, “Small molecules for the treatment of autoimmune diseases and cancer” (Athos Therapeutics, Inc., priority 2020, dated 2022)

Key:
[1] = PAMPA permeability; settings: 5 hours at RT; for Papp at 5 h, 20 μM: PAMPA
[2] = system: C57BL/6 mice with DSS colitis; assay: DSS colitis in C57BL/6 mice; format: in vivo; settings: 25 mg/kg PO daily; day twelve
Procedure: Dextran sodium sulfate (DSS) was added to the water 24 hrs after compound administration and weight was measured daily.
C57BL/6 mice (20-22 grams) were fed ad lib and assigned to 4 different groups (n=8/group). […] A control group received vehicle alone. After 24 hrs, mice were weighed and DSS was added to their drinking water. Mice were then treated with the test compounds and weighed daily and the DSS water was replenished every 72 hrs for 5 days, at which point, it was replaced by regular drinking water. Mice were sacrificed on day twelve and clinical scored was assessed. Intestinal tissue for and blood were also collected. Tissues were either flash frozen and kept in −80° C. for RNA and protein isolation or placed in 10% formalin solution for future histological analysis. Blood was spun at 5K rpm for 5 min and serum was collected and kept at −20° C. for multiplex cytokine analysis.
DSS colitis mouse model: C57BL/6 mice (20-22 grains) are fed ad lib and assigned to different groups (n=8/group). […] A control group receives vehicle alone. After 24 h, mice are weighed and DSS is added to their drinking water. Mice are then treated with the test compounds and weighed daily and the DSS water is replenished every 72 liars for 5 days, at which point, it is replaced by regular drinking water. Mice are sacrificed on day twelve and clinical scored was assessed. Intestinal tissue for and blood are also collected. Tissues are either flash frozen and kept in −80° C. for RNA and protein isolation or placed in 10% formalin solution for future histological analysis.

[3] = system: CaCo-2 intestinal epithelial cells; assay: Transepithelial resistance (TEER) of CaCo-2 cells exposed to TNFα and IFNγ; format: cell-based; settings: CaCo-2; TNFα along with compounds
Procedure: The intestinal epithelial barrier plays a central role in the pathophysiology of multiple chronic inflammatory and autoimmune diseases. Intestinal epithelial cells provide a physical barrier that interacts with immune cells and protects internal cavities from mucosal bacterial and antigen intrusion. Intestinal inflammation during IBD is associated with disruption of this barrier and cytokines like TNFα play important roles.
At confluence TEER is measured and TNFα along with compounds are added as described above. Compound-induced TEER is determined after correction with measurement prior to treatment.

[4] = PAMPA permeability Classification, 20 μM donor
[5] = Permeability, Pe, 20 μM donor in PBS/MeOH 90:10

| Compound | Permeability, Pe ([1]; 20 μM donor in PBS/MeOH 90:10) | DSS Efficacy [2] | TEER [3] | Papp at 5 h, 20 μM [1, 4] | Papp at 5 h, 20 μM [1, 5] |
| --- | --- | --- | --- | --- | --- |
| 4-(4-((1-cyclopropylpiperidin-4-yl)amino)-6-methoxy-7-(3-(pyrrolidin-1-yl)propoxy)quinazolin-2-yl)thiomorpholine 1,1-dioxide [Compound 405, reference compound] | 0.101 ×10⁻⁶ cm/s |  |  |  |  |
| COc1cc2c(NC3CCCS(=O)(=O)C3)nc(N3CCC(F)(F)CC3)nc2cc1OCCCN1CCCC1 (centres unmarked) [Compound 15, 3-((2-(4,4-difluoropiperidin-1-yl)-6-methoxy-7-(3-(pyrrolidin-1-yl)propoxy)quinazolin-4-yl)amino)tetrahydro-2H-thiopyran 1,1-dioxide] |  | + | ++ |  |  |
| COc1cc2c(NC3CCN(C(C)C)CC3)nc(N3CCCN(C)CC3)nc2cc1OCCCN1CCCCC1 [Compound 403, reference compound] |  |  |  | < 0.055 ×10⁻⁶ cm/s | 0.0096 ×10⁻⁶ cm/s |
| COc1cc2c(NC3CCS(=O)(=O)CC3)nc(SC(C)C)nc2cc1OCCCN1CCCC1 [Compound 105] |  | + | + |  |  |
| COc1cc2c(NC3CCOCC3)nc(N3CCCCC3)nc2cc1OCCCN1CCCC1 [Compound 173, 6-methoxy-2-(piperidin-1-yl)-7-(3-(pyrrolidin-1-yl)propoxy)-N-(tetrahydro-2H-pyran-4-yl)quinazolin-4-amine] |  | ++ | ++ |  |  |
| COc1cc2c(NC3CCOCC3)nc(-c3ccc(C)o3)nc2cc1OCCCN1CCCC1 [Compound 180, 6-methoxy-2-(5-methylfuran-2-yl)-7-(3-(pyrrolidin-1-yl)propoxy)-N-(tetrahydro-2H-pyran-4-yl)quinazolin-4-amine] |  | ++ | ++ |  |  |
| COc1cc2c(NC3CCCS(=O)(=O)C3)nc(N3CCC3)nc2cc1OCCCN(C)C (centres unmarked) [Compound 137] |  | + | + |  |  |
| COc1cc2c(NCCCOC(C)C)nc(N3CCC(F)(F)CC3)nc2cc1OCCCN1CCCC1 [Compound 21, 2-(4,4-difluoropiperidin-1-yl)-N-(3-isopropoxypropyl)-6-methoxy-7-(3-(pyrrolidin-1-yl)propoxy)quinazolin-4-amine] |  | + | − |  |  |
| COc1cc2c(N[C@@H]3CCCOC3)nc(N3CCC(F)(F)CC3)nc2cc1OCCCN1CCCC1 [Compound 12, (R)-2-(4,4-difluoropiperidin-1-yl)-6-methoxy-7-(3-(pyrrolidin-1-yl)propoxy)-N-(tetrahydro-2H-pyran-3-yl)quinazolin-4-amine] |  | ++ | ++ |  |  |
| COc1cc2c(NC3CCS(=O)(=O)CC3)nc(C3CC3)nc2cc1OCCCN1CCCC1 [Compound 99, 4-((2-cyclopropyl-6-methoxy-7-(3-(pyrrolidin-1-yl)propoxy)quinazolin-4-yl)amino)tetrahydro-2H-thiopyran 1,1-dioxide] |  | ++ | ++ |  |  |
| COc1cc2c(NC3CCCOC3)nc(N3CCC(F)(F)CC3)nc2cc1OCCCN1CCCC1 (centres unmarked) [Compound 14, 2-(4,4-difluoropiperidin-1-yl)-6-methoxy-7-(3-(pyrrolidin-1-yl)propoxy)-N-(tetrahydro-2H-pyran-3-yl)quinazolin-4-amine] |  | ++ | + |  |  |
| COc1cc2c(N[C@]3(N(C)C)C[C@@H](C)O[C@@H](C)C3)nc(N3CCC(F)(F)CC3)nc2cc1OCCCN1CCCC1 [Compound 25, (2R,4r,6S)—N-(2-(4,4-difluoropiperidin-1-yl)-6-methoxy-7-(3-(pyrrolidin-1-yl)propoxy)quinazolin-4-yl)-N′,N′,2,6-tetramethyltetrahydro-4H-pyran-4,4-diamine] |  | + | + |  |  |
| COc1cc2c(NCN3CCNCC3)nc(-c3cnc(C)s3)nc2cc1OCCCN1CCCC1 [Compound 213] |  | + | + |  |  |
| COc1cc2c(NC3CCS(=O)(=O)CC3)nc(N3CCCC3)nc2cc1C#CCN1CCCC1 [Compound 254] |  | + | + |  |  |
| COc1cc2c(NCO)nc(N3CCC(F)(F)CC3)nc2cc1OCCCN1CCCC1 [Compound 61, ((2-(4,4-difluoropiperidin-1-yl)-6-methoxy-7-(3-(pyrrolidin-1-yl)propoxy)quinazolin-4-yl)amino)methanol] |  | + | + |  |  |
| COc1cc2c(NCN3CCOCC3)nc(N3CCC(F)(F)CC3)nc2cc1OCCCN1CCCC1 [Compound 17, 2-(4,4-difluoropiperidin-1-yl)-6-methoxy-N-(morpholinomethyl)-7-(3-(pyrrolidin-1-yl)propoxy)quinazolin-4-amine] |  | + | + |  |  |
| COc1cc2c(NC3CCN(C(C)C)CC3)nc(N3CCOCC3)nc2cc1OCCCN1CCCC1 [Compound 404, reference compound] |  |  |  | < 0.055 ×10⁻⁶ cm/s | 0.00624 ×10⁻⁶ cm/s |
| COc1cc2c(NC3CCOCC3)nc(N3CCCC3)nc2cc1C#CCN1CCCC1 [Compound 250] |  | ++ | ++ |  |  |
| COc1cc2c(NC3CCS(=O)(=O)CC3)nc(N3CCC3)nc2cc1OCCCN1CCCC1 [Compound 81, 4-((2-(azetidin-1-yl)-6-methoxy-7-(3-(pyrrolidin-1-yl)propoxy)quinazolin-4-yl)amino)tetrahydro-2H-thiopyran 1,1-dioxide] |  | ++ | + |  |  |
| COc1cc2c(NCC#N)nc(N3CCC(F)(F)CC3)nc2cc1OCCCN1CCCC1 [Compound 49, 2-((2-(4,4-difluoropiperidin-1-yl)-6-methoxy-7-(3-(pyrrolidin-1-yl)propoxy)quinazolin-4-yl)amino)acetonitrile] |  | − | − |  |  |
| COc1cc2c(Nc3ccccn3)nc(N3CCC(F)(F)CC3)nc2cc1OCCCN1CCCC1 [Compound 34, 2-(4,4-difluoropiperidin-1-yl)-6-methoxy-N-(pyridin-2-yl)-7-(3-(pyrrolidin-1-yl)propoxy)quinazolin-4-amine] |  | − | − |  |  |
